# Data published in PMC5491903, “The Selective Phosphoinoside-3-Kinase p110δ Inhibitor IPI-3063 Potently Suppresses B Cell Survival, Proliferation, and Differentiation” (Frontiers in Immunology, 2017).
# Columns and labels:
# mouse B cells = assay: mouse B cell proliferation (CFSE); assay type: cell-based; conditions: αIgM + IL-4, 72 h
# Protocol: Next, we evaluated the effects of PI3K inhibitors on B cell proliferation. We stimulated CFSE-stained cells with αIgM + IL-4 or with LPS for 72 h, or with αCD40 + IL-4 or LPS + IL-4 for 96 h. Cells were treated with vehicle or GDC-0941, IPI-3063, IPI-443, or AS-252424 at various concentrations. […] IPI-443 caused a dose-dependent decrease in proliferation, whereas AS-252424 had no effect. […] In B cells stimulated with LPS + IL-4, the inhibitors had similar trends, but with greater variability (Figure 3D). […] Overall, these experiments establish that the selective p110δ inhibitor IPI-3063 is a very potent inhibitor of B cell survival and proliferation in vitro. In addition, selective p110γ inhibition alone had no effect on B cell survival or proliferation.
# Total splenocytes (A,B) or purified B cells (C–E) were pretreated with inhibitors for 30 min, then stimulated with (A,B) αIgM + IL-4 for 72 h, (C–E) LPS + IL-4 for 96 h, LPS for 72 h, or αCD40 + IL-4 for 96 h. […] The experiments in panel (C) include low concentrations of IPI-3063 (0.01 and 0.1 nM) Total numbers were determined by the number of B220^+7AAD^−CFSE^lo cells. […]
# Before cell surface staining, cells were incubated with TruStain fcX in FACS buffer (0.5% BSA + 0.02% NaN3 in 1× HBSS) to block Fc receptors for 10 min on ice. […] Flow cytometric data were analyzed using FlowJo software (TreeStar). […]
# [1] = system: LPS-stimulated mouse B cells; assay: mouse plasmablast differentiation (CD138+B220lo); assay type: cell-based; conditions: 72 h
# Protocol: Figure 5 IPI-3063 potently […] mouse B cell antibody switching and inhibits plasmablast differentiation. Purified B cells were pretreated with inhibitors, then stimulated with αCD40 + IL-4 (B) or LPS + IL-4 (C) for 96 h to induce switching to IgG1 or LPS (D) for 72 h to induce plasmablast differentiation. Class switching to IgG1 was measured by the 7AAD^−CFSE^loB220^+IgG1^+ cells [(A), upper panels]. Plasmablast percentages were calculated by % 7AAD^−CFSE^loCD138^+B220^lo population [(A), lower]. Supernatant was harvested (E) for IgM ELISA. Concentrations used were 1 nM, 10 nM, 100 nM, 1 µM for IPI-443 and 1, 10, 30, 100 nM for IPI-3063. Low concentrations of IPI-3063 were 0.01 and 0.1 nM (D). AS252424 concentrations were 100 nM, 300 nM, and 1 µM, and GDC-0941 was at 500 nM. Samples were collected by time (*P < 0.05, **P < 0.001, ***P < 0.0001 one-way ANOVA with Newman–Keuls multiple comparison test). […]
# We also evaluated plasmablast differentiation and IgM secretion in LPS-stimulated cells (Figure 5D). […]
# Mouse splenic B cells were purified by negative selection (eBioscience Magnisort Mouse B cell enrichment kit). B-cell purity was >95% as measured by FACS analysis (FACSCalibur and CellQuest software; BD Biosciences) using anti-B220 antibody (BioLegend). […]
SMILES,effect on proliferation (mouse B cells),effect on plasmablast differentiation [1],concentration that blocks/decreases proliferation (mouse B cells),concentration that decreases plasmablast differentiation ([1]; % CD138+B220lo)
"O=C1NC(=O)/C(=C/c2ccc(-c3ccc(F)cc3O)o2)S1 [AS-252424, reference compound]",no effect,no significant effect,–,–
CC(C)n1c([C@H](C)Nc2ncnc(N)c2C#N)cc2cccc(-c3ccc(=O)n(C)c3)c2c1=O [IPI-3063],–,–,1 nM,≥ 1 nM
